Tested on: fifteen genes associated with the cytochrome p450 family
Assay: Microarray gene expression in tissue of Tempol-fed mice, overall statement
Assay type: in vivo
Conditions: 5 mg/g of food from 14 to 31 months after birth, cardiac tissue, vs control mice
Method: Mice receiving the same food without the addition of Tempol were used as a negative control. At the age of 31 months, the experimental animals were sacrificed and the hearts were surgically removed. The expression of a broad spectrum of genes in the cardiac tissue was assessed using chip-based microarray technology. Such chips are well known in the art and are widely used to assess gene expression.

**Q.** `CC1(C)CC(O)CC(C)(C)N1[O]` [Tempol, 4-hydroxy-2,2,6,6-tetramethylpiperidine-1-oxyl] was tested. Which “Expression of fifteen genes associated with the cytochrome p450 family” value did it give?
**A.** Its value is “statistically significant increase in expression”.

Reference: patent US20220378764A1, “[…] OF A GENE ENCODING A CYTOCHROME P450 PROTEIN BY TREATING A HUMAN SUBJECT WITH A NITROXIDE” (priority 2021, published 2022)
